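48-hour exposure; five concentrations; linearly interpolated endpoints. At the TGI there is no net growth.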
Legend:
Test in all cases: growth of human tumour cells (NCI), 48 h
SK-OV-3 ovarian = system: SK-OV-3 ovarian
NCI/ADR-RES ovarian = system: NCI/ADR-RES ovarian
HS 578T breast = system: HS 578T breast
CCRF-CEM leukemia = system: CCRF-CEM leukemia
UACC-62 melanoma = system: UACC-62 melanoma
MALME-3M melanoma = system: MALME-3M melanoma
HCT-15 colon = system: HCT-15 colon
SW-620 colon = system: SW-620 colon
MCF7 breast = system: MCF7 breast
SR leukemia = system: SR leukemia
KM12 colon = system: KM12 colon
RPMI-8226 leukemia = system: RPMI-8226 leukemia
HCT-116 colon = system: HCT-116 colon
OVCAR-3 ovarian = system: OVCAR-3 ovarian
SF-268 CNS = system: SF-268 CNS
M14 melanoma = system: M14 melanoma
NCI-H522 lung = system: NCI-H522 lung
IGROV1 ovarian = system: IGROV1 ovarian
K-562 leukemia = system: K-562 leukemia
HCC-2998 colon = system: HCC-2998 colon
DU-145 prostate = system: DU-145 prostate
BT-549 breast = system: BT-549 breast
NCI-H460 lung = system: NCI-H460 lung
ACHN renal = system: ACHN renal
MDA-MB-435 = system: MDA-MB-435
A549 NSCLC = system: A549 NSCLC
LOX IMVI melanoma = system: LOX IMVI melanoma
RXF 393 renal = system: RXF 393 renal
OVCAR-4 ovarian = system: OVCAR-4 ovarian
SK-MEL-2 melanoma = system: SK-MEL-2 melanoma
UO-31 renal = system: UO-31 renal
NCI-H23 lung = system: NCI-H23 lung
SK-MEL-5 melanoma = system: SK-MEL-5 melanoma
HOP-62 NSCLC = system: HOP-62 NSCLC
PC-3 prostate = system: PC-3 prostate
HL-60(TB) leukemia = system: HL-60(TB) leukemia
OVCAR-8 ovarian = system: OVCAR-8 ovarian
SNB-75 CNS = system: SNB-75 CNS
U251 CNS = system: U251 CNS
MDA-MB-231 breast = system: MDA-MB-231 breast
T-47D breast = system: T-47D breast
SF-295 CNS = system: SF-295 CNS
HOP-92 NSCLC = system: HOP-92 NSCLC
NCI-H226 lung = system: NCI-H226 lung
786-0 renal = system: 786-0 renal
OVCAR-5 ovarian = system: OVCAR-5 ovarian
SF-539 CNS = system: SF-539 CNS
SK-MEL-28 melanoma = system: SK-MEL-28 melanoma
A498 renal = system: A498 renal
COLO 205 colon = system: COLO 205 colon
HT29 colon = system: HT29 colon
SN12C renal = system: SN12C renal
UACC-257 melanoma = system: UACC-257 melanoma
EKVX NSCLC = system: EKVX NSCLC
MDA-N = system: MDA-N
SNB-19 CNS = system: SNB-19 CNS
TK-10 renal = system: TK-10 renal
CAKI-1 renal = system: CAKI-1 renal
MOLT-4 leukemia = system: MOLT-4 leukemia

Q: With `CN1CCN(CCCCN2c3ccccc3Sc3cc(N=[N+]=[N-])ccc32)CC1` as the molecule, how does the TGI (SK-OV-3 ovarian) read?
A: 22 µM

Q: What about the TGI (NCI/ADR-RES ovarian) of the same molecule?
A: 7.86 µM

Q: And the TGI (HS 578T breast)?
A: 5.02 µM

Q: And the TGI (CCRF-CEM leukemia)?
A: 4.66 µM

Q: And the TGI (UACC-62 melanoma)?
A: 3.92 µM

Q: And the TGI (MALME-3M melanoma)?
A: 3.28 µM

Q: What about the TGI (HCT-15 colon) of the same molecule?
A: 5.68 µM

Q: And the TGI (SW-620 colon)?
A: 3.47 µM

Q: What about the TGI (MCF7 breast) of the same molecule?
A: 3.63 µM

Q: What about the TGI (SR leukemia) of the same molecule?
A: > 100 µM

Q: What about the TGI (KM12 colon) of the same molecule?
A: 3.48 µM

Q: And the TGI (RPMI-8226 leukemia)?
A: 5.88 µM

Q: What about the TGI (HCT-116 colon) of the same molecule?
A: 2.98 µM

Q: What about the TGI (OVCAR-3 ovarian) of the same molecule?
A: 6.53 µM

Q: What about the TGI (SF-268 CNS) of the same molecule?
A: 22.4 µM

Q: And the TGI (M14 melanoma)?
A: 3.28 µM

Q: What about the TGI (NCI-H522 lung) of the same molecule?
A: 3.31 µM

Q: What about the TGI (IGROV1 ovarian) of the same molecule?
A: 4.26 µM

Q: And the TGI (K-562 leukemia)?
A: 3.04 µM

Q: And the TGI (HCC-2998 colon)?
A: 2.92 µM

Q: And the TGI (DU-145 prostate)?
A: 15.1 µM

Q: What about the TGI (BT-549 breast) of the same molecule?
A: 21.9 µM

Q: And the TGI (NCI-H460 lung)?
A: 3.8 µM

Q: What about the TGI (ACHN renal) of the same molecule?
A: 4.56 µM

Q: What about the TGI (MDA-MB-435) of the same molecule?
A: 3.17 µM

Q: And the TGI (A549 NSCLC)?
A: 3.93 µM

Q: And the TGI (LOX IMVI melanoma)?
A: 3.22 µM

Q: And the TGI (RXF 393 renal)?
A: 9.83 µM

Q: And the TGI (OVCAR-4 ovarian)?
A: 7.5 µM

Q: And the TGI (SK-MEL-2 melanoma)?
A: 5.04 µM

Q: And the TGI (UO-31 renal)?
A: 3.76 µM

Q: What about the TGI (NCI-H23 lung) of the same molecule?
A: 18.7 µM

Q: And the TGI (SK-MEL-5 melanoma)?
A: 3.04 µM

Q: What about the TGI (HOP-62 NSCLC) of the same molecule?
A: 6.63 µM

Q: And the TGI (PC-3 prostate)?
A: 3.57 µM

Q: And the TGI (HL-60(TB) leukemia)?
A: 6.08 µM

Q: And the TGI (OVCAR-8 ovarian)?
A: 3.85 µM

Q: And the TGI (SNB-75 CNS)?
A: 10.1 µM

Q: What about the TGI (U251 CNS) of the same molecule?
A: 7.83 µM

Q: What about the TGI (MDA-MB-231 breast) of the same molecule?
A: 4.14 µM

Q: What about the TGI (T-47D breast) of the same molecule?
A: 31.9 µM

Q: And the TGI (SF-295 CNS)?
A: 5.65 µM

Q: And the TGI (HOP-92 NSCLC)?
A: 6.43 µM

Q: What about the TGI (NCI-H226 lung) of the same molecule?
A: 12.6 µM

Q: What about the TGI (786-0 renal) of the same molecule?
A: 3.03 µM

Q: What about the TGI (OVCAR-5 ovarian) of the same molecule?
A: 25.8 µM

Q: What about the TGI (SF-539 CNS) of the same molecule?
A: 8.31 µM

Q: What about the TGI (SK-MEL-28 melanoma) of the same molecule?
A: 3.52 µM

Q: What about the TGI (A498 renal) of the same molecule?
A: 22.8 µM

Q: What about the TGI (COLO 205 colon) of the same molecule?
A: 3.25 µM

Q: What about the TGI (HT29 colon) of the same molecule?
A: 3.03 µM

Q: What about the TGI (SN12C renal) of the same molecule?
A: 6.46 µM

Q: What about the TGI (UACC-257 melanoma) of the same molecule?
A: 3.89 µM

Q: And the TGI (EKVX NSCLC)?
A: 15.1 µM

Q: What about the TGI (MDA-N) of the same molecule?
A: 11.2 µM

Q: And the TGI (SNB-19 CNS)?
A: 10.8 µM

Q: What about the TGI (TK-10 renal) of the same molecule?
A: 3.43 µM

Q: What about the TGI (CAKI-1 renal) of the same molecule?
A: 5.32 µM

Q: What about the TGI (MOLT-4 leukemia) of the same molecule?
A: 4.12 µM

From PubChem BioAssay (NCI)
